What was measured:
primary BMMs = assay: CCK-8 cytotoxicity assay on BMMs; format: cell-based, mouse
Description: Primary BMMs were obtained from whole bone marrow of male 6-week-old C57BL/6 mice. In brief, cells were extracted from the tibiae and femurs bone marrow and suspended in complete α-MEM (α-MEM supplemented with 30 ng/ml M-CSF, 10% FBS, and 1% penicillin/streptomycin). Then, the cell cultures were kept in a humid environment at 37 °C with 5% CO2 until they reached 90% confluence. The cytotoxic effects of DZNep on BMMs were then determined by the CCK-8 kit. Specifically, the BMMs were seeded into 96-well plates in triplicate at the density of 8 × 10^3 cells/well in presence of 100μL complete α-MEM for 24 h. After that, the cells were treated with increasing concentration of DZNep (control, 3.125, 6.25, 12.5, 25, 50, 100, 200 nM) for 24, 48, and 96 h. After treatment, 100μL medium contained 10% CCK-8 buffer was added to the wells and incubated in the dark at 37 °C for 2 h. The absorbance was then detected at 450 nm wavelength (650 nm reference) on a microplate reader.

BMMs = assay: Immunofluorescence of podosome actin belt; format: cell-based, mouse; settings: 25 nM, vs control
Description: BMMs in complete α-MEM with or without 25 nM DZNep were seeded in 6-well plates at a density of 1 × 10^5 cells/well and cultured for 6 days. Once the matured osteoclast could be observed, the plate was washed by PBS and then fixed with 4% paraformaldehyde. The 10 min 0.2% Triton X-PBS was then performed for permeabilizing. After three times washing by PBS, FITC-labeled phalloidin was added for 1 h in darkness to bounds with the cells F-actin ring. The nuclei were stained at RT for 5 min without light by 4′, 6-diamidino-2-phenylindole (DAPI). After the final PBS wash, the perimeter of the actin ring could be observed by the fluorescence microscope (Leica) and analyzed using ImageJ software (NIH, Bethesda, MD, USA).

bone defect mice = assay: Tibia cortical and trabecular bone defect mice model; format: in vivo, mouse
Excerpt: The tibia cortical and trabecular bone defect mice model was established to determine the bone healing effect of DZNep in vivo. Firstly, all mice (twelve 8-week-old C57/BL6 male mice (approximate weight 20 ± 2 g)) were anesthetized by 2% isoflurane, the right tibia was exposed, and muscles were dissociated. Then a pilot hole was first made with a burr drill point in the proximal tibia, but away from the growth plate to some extent. Then the hole was enlarged with a 1 mm […]. Afterward, the mice were average divided into two groups: (1) DZNep group (injection with 100 μg/kg DZNep); (2) Sham group (injection with 1 × PBS). Two days after operation, 1 × PBS for sham group and DZNep for treatment group were intraperitoneally injected every two days during next two week. All mice were finally euthanized after experiment, and whole tibia bones were separated. After fixed in 4% paraformaldehyde for 24 h, the 75% ethanol was then used to soak the specimens for further histological and radiographic analysis. High-resolution micro-CT (μCT-100, SCANCO Medical AG, Switzerland) was used to perform the micro-computed tomography (CT) scanning. […] For analysis bone mass of defect section, a region of defect section trabecular bone was contoured, starting from the first defect section level away from proximal end of the […] growth plate. Femoral trabecular bone was thresholded at 211 per mille. The indicators of bone microstructure (bone volume/tissue volume (BV/TV), trabecular thickness (Tb.Th), trabecula number (Tb.N), trabecula separation (Tb.Sp), and bone surface/ bone volume (BS/BV)) were measured by software (Version: 6.5-3, SCANCO Medical AG, Switzerland) through evaluating and analyzing the three-dimensional region of interest (ROI). After fixing in 4% paraformaldehyde for 48 h, the 10% EDTA was used to decalcify the fixed tibias for 21 days. Then the tissues were processed by dehydrating in different concentrations of ethanol, infiltrating with xylene, and embedding with paraffin. Hematoxylin and eosin (H&E) and TRAP staining were then performed on these prepared histological sections. As for immunofluorescent staining, slices were processed in a sequence of deparaffinization, hydration, antigen retrieval, permeabilization, blocking, primary antibody incubation (OCN, USA, Affinity; dilution 1:100), secondary antibody incubation, and nuclear staining finally. Immunohistochemical (IHC) staining was accomplished with antibodies against OCN (USA, Affinity; dilution 1:100). The specimens were observed and photographed under the high-quality microscope (Leica DM4000B). Each sample's number of osteoclasts and TRAP-positive multinucleated osteoclasts per field (Oc.S/BS) were calculated.

EZH2 and H3K27me3 = assay: Western blotting of EZH2, H3K27me3 and GSK-3β in BMSC; format: cell-based, mouse
primary BMSC = assay: CCK-8 cytotoxicity on BMSC; format: cell-based, mouse; settings: 100 nM; 12, 48, and 96 h
[1] = 100 μg/kg i.p. every two days, two weeks

Nc1nccc2c1ncn2C1C=C(CO)C(O)C1O (stereo not drawn) [DZNep, 3-Deazaneplanocin]
cytotoxicity on primary BMMs (primary BMMs; 25 nM, CCK-8 at 24, 48, and 96 h): no cytotoxicity was found
IC50 (primary BMMs; Mus musculus, at 96 h, CCK-8, read-out: inhibitory concentration (IC50) against BMMs): 326 nM
podosome actin belt formation of osteoclast (BMMs): promoted the podosome actin belt formation
osteocalcin (OCN) expression in vivo (bone defect mice; 100 μg/kg i.p.): increased
BV/TV (micro-CT) (bone defect mice; [1]): prominently increased
trabecular thickness (Tb.th) (micro-CT) (bone defect mice; [1]): prominently increased
bone mineral density (X-ray) (bone defect mice; 100 μg/kg i.p. every two days, two weeks, vs control): more bone mineral density
bone repair (H&E-stained sections) (bone defect mice; 100 μg/kg i.p., vs control): more significant bone repair
number of TRAP-positive multinucleated osteoclasts in vivo (bone defect mice; 100 μg/kg i.p., vs vehicle-treated group): more number of TRAP-positive multinucleated osteoclasts
EZH2 and H3k27me3 expression in BMSC (EZH2 and H3K27me3; 0, 25, 50, 100 nM, 24 h, vs control): dose-dependent decreased
phosphorylation level of GSK-3β (EZH2 and H3K27me3; BMSC): no significant change
cytotoxicity on primary BMSC (primary BMSC): no cytotoxicity was found

Source: paper PMC8686256, “DZNep promotes mouse bone defect healing via enhancing both osteogenesis and osteoclastogenesis” (Stem Cell Research & Therapy, 2021)
